Consider 91 molecules from PubChem BioAssay AID1159563 (GlaxoSmithKline (GSK), 2015).

Activity calls are given as the source filed them. No rule for the calls is given here.

This test has as its system HepG2 cytotoxicity. The test can be described thus: human hepatoma cell viability loss – cytotoxicity control (AID 1159563).
For orientation: IC50 means the point on the concentration scale where inhibition reaches its midpoint. `O=c1[nH]cnc2c([C@@H]3O[C@H](CO)[C@@H](O)[C@H]3O)[nH]nc12`: the IC50 was > 100 µM (inactive).

Take `Cc1cc(Oc2cc(Cl)c(Cl)cc2Cl)n2ncnc2n1`: the IC50 was 32 µM.

For `O=C(NCCc1csc(-c2ccc(F)cc2)n1)c1ccco1`, the IC50 was > 100 µM (inactive).

As to `NS(=O)(=O)c1ccc(Nc2nccc(-c3cnn4ncccc34)n2)cc1`, the IC50 is > 100 µM (inactive).

As to `O=C(NCC1CCCCC1)c1cc(=O)c2ccccc2o1`, the IC50 was 25 µM.

For the molecule `Cn1nc(C(=O)N2CCc3ccccc32)c2c1CCS(=O)(=O)C2`, the IC50 was > 100 µM (inactive).

Take `COc1ccc(CNc2cc(C3CC3)nc(-c3nccn3C)n2)cc1`: the IC50 is 25 µM.

For the molecule `CCOc1ccc2nc(NC(=O)c3ccc([N+](=O)[O-])s3)sc2c1`, the IC50 was 32 µM.

`CN(CCOc1ccc(Cl)cc1)Cc1nc(N)nc(N(C)C)n1`: the IC50 is > 100 µM (inactive).

Regarding `Cc1cc(N(C)C)nc2ccc(Cc3cnc(N)nc3N)cc12`, the IC50 is 32 µM.

As for `Cc1ccc(Nc2nc(N)nc(CNC(c3nc4ccccc4[nH]3)C(C)C)n2)cc1` (stereo unspecified), the IC50 is > 100 µM (inactive).

Take `CCC(=O)N1N=C(c2ccc3c(c2)CCCC3)Sc2c1ncn2C(=O)CC`: the IC50 was > 100 µM (inactive).

Take `O=c1cc(NCCCNC2CCOc3c(I)cc(Cl)cc32)[nH]c2ccccc12` (stereo unspecified): the IC50 is 63 µM.

`Cc1c(Nc2cc(C3CC3)[nH]n2)ccc(C#N)c1Cl`: the IC50 was 40 µM.

As for `C=CCn1nc([N+](=O)[O-])nc1Oc1ccc(Cl)cc1Cl`, the IC50 is > 100 µM (inactive).

Regarding `CCN(CC)c1nc(N(C)C)nc2c1CN(Cc1ccccc1)CC2`, the IC50 is 63 µM.

As to `C=CC[C@@H]1CC=C[C@@H](C)N1C(=O)CCc1nnc(-c2ccc3c(c2)OCO3)o1`, the IC50 was > 100 µM (inactive).

As to `CCN(Cc1cccs1)C(=O)CSc1nnc(-c2ccc3c(c2)OCO3)o1`, the IC50 was > 100 µM (inactive).

As for `O=C(Cc1ccccc1)Nc1[nH]nc2sc(C(=O)NC3CCCC3)cc12`, the IC50 is 50 µM.

In the case of `Cc1cc(C)nc(N2CCC(N(Cc3cccnc3)C(=O)c3cccc(C#N)c3)CC2)n1`, the IC50 was > 100 µM (inactive).

For the molecule `CC(C)N(C(=O)CN1C(=O)C(N)C(=O)N(c2ccccc2)c2ccccc21)c1ccccc1` (stereo unspecified), the IC50 was > 100 µM (inactive).

Turning to `O=C(CN1CCN(S(=O)(=O)c2cccc([N+](=O)[O-])c2)CC1)Nc1ccc(Oc2ccccc2)cc1`, the IC50 is > 100 µM (inactive).

For `CCN(CC)c1nc(Nc2ccncc2)nc2ccccc12`, the IC50 is 50 µM.

As for `O=C(NC(c1ccc(Cl)cc1)c1cnccn1)C1CCN(C(=O)Nc2cccc(C(F)(F)F)c2)CC1` (stereo unspecified), the IC50 was > 100 µM (inactive).

For `COc1ccc(-c2cc(C)no2)cc1S(=O)(=O)Nc1ccc(F)c(Cl)c1`, the IC50 was 79 µM.

With `Nc1nc(-c2ccccc2)cc(-c2nc3ncccc3[nH]2)n1`, the IC50 was 40 µM.

With `O=C1CN(C2CCCc3c(OCc4ccncc4)cccc32)C(=O)N1C1CCCCC1` (stereo unspecified), the IC50 was > 100 µM (inactive).

In the case of `COc1ccc(NS(=O)(=O)c2cccc(NC(=O)c3cc(F)cc(F)c3)c2)cc1`, the IC50 is 32 µM.

In the case of `c1ccc2sc(Nc3nc4ncccc4[nH]3)nc2c1`, the 50% inhibitory concentration (IC50) is 20 µM.

Consider `O=C(c1ccc(O)c(Cl)c1)N1CCN(c2cnccn2)CC1`, for which the IC50 is > 100 µM (inactive).

For the molecule `Cn1ccnc1-c1nc(NCc2ccccc2Cl)cc(C2CC2)n1`, the IC50 was 20 µM.

As for `OC[C@@H](Nc1nccc(-c2c(-c3ccc(F)cc3)ncn2C2CCNCC2)n1)c1ccccc1`, the IC50 was 100 µM.

Take `Oc1c(-c2n[nH]c(CCc3ccccc3)n2)ncc2cccnc12`: the IC50 was 40 µM.

In the case of `CCC(=O)Nc1ccccc1C(=O)Nc1ccccn1`, the IC50 was > 100 µM (inactive).

With `Cc1cc(Br)sc1CNCCCNc1cc(=O)c2ccccc2[nH]1`, the IC50 was 40 µM.

`COc1cccc(C(=O)[C@H]2C[C@@H]2CN(Cc2ccccn2)Cc2ccccn2)c1`: the IC50 was > 100 µM (inactive).

`O=C(COc1ccccc1)Nc1ccccc1C(=O)Nc1nccs1`: the IC50 is > 100 µM (inactive).

Consider `Cc1[nH]n2c(=O)c3c(nc2c1-c1ccc(Cl)cc1)CCCC3`, for which the IC50 is > 100 µM (inactive).

In the case of `CC(=O)NCCNc1cc(-c2ccnc(Nc3cccc(Cl)c3)n2)ccn1`, the IC50 is 25 µM.

As for `O=S(=O)(NCC(c1cccnc1)N1CCN(c2ccccc2F)CC1)c1ccc(F)cc1` (stereo unspecified), the IC50 is > 100 µM (inactive).

Consider `O=C(NCCc1nc(-c2ccc(F)c(F)c2)n[nH]1)C1CCCCC1`, for which the IC50 was > 100 µM (inactive).

With `Cc1cccnc1NC(=O)c1cccc(OCc2c(C)noc2C)c1`, the IC50 was > 100 µM (inactive).

Take `Nc1nccc(-c2csc(Nc3ccc(Cl)cc3)n2)n1`: the IC50 is > 100 µM (inactive).

As to `O=C(CSc1ccc(F)cc1)N[C@@H](Cc1cnc[nH]1)C(=O)NCCc1ccccc1`, the IC50 was > 100 µM (inactive).

Take `O=[N+]([O-])c1ccc(C2=CC(c3ccccc3)=NCCN2)cc1`: the IC50 is 50 µM.

Turning to `O=C1NCCn2ccc(Nc3nc(NC4CCC(O)CC4)ncc3Cl)c21` (stereo unspecified), the IC50 was > 100 µM (inactive).

On to `Cc1[nH]nc(-c2nc3ccccc3[nH]2)c1C(=O)NC1CCCNC1` (stereo unspecified), for which the IC50 is > 100 µM (inactive).

As to `Oc1c(-c2n[nH]c(Cc3ccc(Cl)cc3)n2)ncc2cccnc12`, the IC50 was 40 µM.

For the molecule `CC(CNS(=O)(=O)c1ccc(OC(F)F)cc1)c1ccc(NC(=O)c2ccncc2)cc1` (stereo unspecified), the IC50 is 100 µM.

Regarding `Cc1ccc2sc(NC(=O)Cn3cnc([N+](=O)[O-])n3)nc2c1`, the IC50 is > 100 µM (inactive).

As for `COc1ccc([N+](=O)[O-])cc1NC(=O)Nc1cccc(Cl)c1`, the IC50 was > 100 µM (inactive).

For `Cc1nn(-c2nc3ccccc3s2)c2c1C(c1ccc(OCC(N)=O)cc1)SCC(=O)N2` (stereo unspecified), the IC50 is > 100 µM (inactive).

As for `CCc1nn(-c2ncc(F)c(NC(C)C)n2)c(N)c1C1CCCCC1`, the IC50 is 32 µM.

Take `O=C(CN1CCN(c2ccccn2)CC1)Nc1cc(S(=O)(=O)N2CCCCCC2)ccc1Cl`: the IC50 was > 100 µM (inactive).

Take `O=c1[nH]ccc2ccc(-c3ccncc3)cc12`: the IC50 is > 100 µM (inactive).

`O=C(CC1(O)C(=O)N(Cc2cccs2)c2ccc(Br)cc21)c1cccnc1` (stereo unspecified): the IC50 was 63 µM.

Turning to `Cc1nc(N2CCC(C(=O)N3CCC(O)(c4cccnc4)CC3)CC2)nc2ccc(C(C)C)cc12`, the IC50 is 79 µM.

In the case of `Cc1nc(-c2ccncc2)ncc1C(C)NC(=O)c1ccc(Cl)s1` (stereo unspecified), the IC50 is > 100 µM (inactive).

Consider `COc1ccc2ncc(Cl)c(CCN3CC[C@@H](NCc4cc5c(cn4)OCS5)[C@H](O)C3)c2n1`, for which the IC50 is 50 µM.

In the case of `c1ccc(-c2nc(NC3CCCC3)c3ccccc3n2)nc1`, the concentration for half-maximal inhibition (IC50) was 16 µM.

Consider `O=C(Cc1ccc2c(c1)CCC2)Nc1n[nH]c(-c2ccccn2)n1`, for which the IC50 was 50 µM.

For `CC(C)(C)C(=O)Nc1cc(C2CC2)nn1-c1nc2c(c(=O)[nH]1)CCCC2`, the IC50 is > 100 µM (inactive).

As for `NC(=O)c1ccsc1NC(=O)c1ccc([N+](=O)[O-])s1`, the IC50 is > 100 µM (inactive).

Turning to `Cc1[nH]n2c(=O)c3c(nc2c1-c1ccc(Br)cc1)CCCC3`, the IC50 was > 100 µM (inactive).

For the molecule `CCn1nccc1CN(C)C(=O)C=Cc1ccc(Cl)cc1`, the IC50 was > 100 µM (inactive).

In the case of `Cc1cnc(Nc2cc(Cc3ccccc3)nc(NC3CCC(O)CC3)n2)s1` (stereo unspecified), the IC50 was 25 µM.

For `Cc1cc2ncn(-c3ccc([N+](=O)[O-])cc3C#N)c2cc1C`, the IC50 was > 100 µM (inactive).

Regarding `CCN(CC)S(=O)(=O)c1ccc(Cn2nc(C(=O)Nc3ccncn3)c3ccccc32)cc1`, the IC50 is > 100 µM (inactive).

For the molecule `O=C(c1cnn(-c2ccccc2)n1)N1CCCC(n2ccnc2)C1` (stereo unspecified), the IC50 was > 100 µM (inactive).

Take `CCOc1ccccc1C(=O)Nc1nnc(-c2ccc3c(c2)OCO3)s1`: the IC50 is > 100 µM (inactive).

Consider `O=C(Nc1ccccc1)Nc1nc(-c2ccccn2)cs1`, for which the IC50 was 25 µM.

Regarding `NC(=O)c1cc(F)ccc1Nc1nc(NC2CCC(O)CC2)ncc1Br` (stereo unspecified), the IC50 is 50 µM.

On to `O=C(CCCn1cnc([N+](=O)[O-])n1)Nc1cccc(Cl)c1`, for which the IC50 was > 100 µM (inactive).

For the molecule `Nc1cc(-c2ccc3ncnc(N4CCOCC4)c3c2)cnc1N`, the IC50 is > 100 µM (inactive).

Regarding `Nc1ncnc2c1ncn2[C@@H]1O[C@H](CO)C[C@H]1O`, the IC50 is > 100 µM (inactive).

On to `CC(Cn1ccnc1)NC(=O)C=Cc1ccc(Cl)cc1` (stereo unspecified), for which the IC50 was > 100 µM (inactive).

Turning to `CC(=O)Nc1cccc(Nc2ncnc3nc[nH]c23)c1`, the IC50 was > 100 µM (inactive).

`COc1ccc(NS(=O)(=O)c2cc(NC(=O)Cc3ccc(C)cc3)ccc2N2CCOCC2)cc1`: the IC50 is > 100 µM (inactive).

With `O=C(Nc1nc(-c2ccccn2)cs1)c1ccc(S(=O)(=O)N2CCCCC2)cc1`, the IC50 was 63 µM.

Regarding `CN1CCN(c2nc(-c3ccc(Cl)cc3)c3c(N)n(C)nc3n2)CC1`, the IC50 was 79 µM.

For the molecule `Clc1ccc(OCCN2CCCCC2c2cccnc2)c(Cl)c1` (stereo unspecified), the IC50 was 79 µM.

On to `O=C1c2cnc(N3CCCC3)nc2CN1c1ccc2c(c1)OCO2`, for which the IC50 was > 100 µM (inactive).

`Clc1ccc(CN2CCN(C3=NCCN3)CC2)cc1Cl`: the IC50 was 63 µM.

Consider `Cc1nc2c(-c3nc(-c4ccc(N)cc4)n[nH]3)cccn2c1C`, for which the IC50 was 16 µM.

Consider `FC(F)(F)c1cc(C2CCCN(Cc3c[nH]c4ccccc34)C2)nc2ncnn12` (stereo unspecified), for which the IC50 is > 100 µM (inactive).

In the case of `CS(=O)(=O)c1ccc(Nc2nccc(Nc3n[nH]c4ccc(F)cc34)n2)c(F)c1`, the IC50 was 79 µM.

For `O=C(Cc1ccccc1)Nc1ccccc1C(=O)Nc1nccs1`, the IC50 is > 100 µM (inactive).

In the case of `CN(C)S(=O)(=O)c1ccc(Cl)c(C(=O)Nc2nc(-c3ccccn3)cs2)c1`, the IC50 is > 100 µM (inactive).

As to `Cc1ccc(-c2csc(NC(=O)C=Cc3ccc(S(=O)(=O)N4CCOCC4)cc3)n2)o1`, the IC50 was > 100 µM (inactive).

As for `Cc1cc(C)c(C#N)c(SCC(=O)c2ccc3c(c2)OCO3)n1`, the IC50 was > 100 µM (inactive).

As to `Cc1nccn1C1CCCN(C(=O)c2cc3c(F)cccc3s2)C1` (stereo unspecified), the IC50 is > 100 µM (inactive).
